Assays:
weeds = test: germination-preventing action in treated soil; assay type: in vivo; conditions: minimum amounts of 4 g per square meter of soil
[1] = cited from earlier work

SMILES | germination-preventing action (weeds) | vapour pressure at 25° C. [1]
C=CCN=C=S [allyl isothiocyanate, Allyl isothiocyanate] | marked germination-preventing action | 5 mmHg
CN=C=S [methyl isothiocyanate, reference compound] |  | 19 mmHg

Reference: US8901037B2, “Composition having a germination-preventing activity, processes for obtaining said compositions and use thereof” (Isagro S.p.A., priority 2006, dated 2014)
